Test results reported in patent publication US7544657B2, “Stabilized Exendin-4 compounds” (Zealand Pharma A/S, priority 2002, dated 2009).

Assays:
diabetic db/db mice = conditions: given systemically; cited from earlier work
db/db mice = assay: Oral glucose tolerance test (OGTT); format: in vivo; conditions: OGTT in db/db mice, compound i.p. 15 min before oral glucose 1 g/kg, ED50 based on curve fits of AUC0-240 min
Procedure: Oral Glucose Tolerance Test (OGTT)
The anti diabetic effect of the present compounds was tested in an oral glucose tolerance test (OGTT). In short, animals were fasted over night, and blood samples were taken from the tip of the tail and the blood glucose measured. The whole blood glucose (mM) concentration was analysed by the immobilised glucose oxidase method using a drop of blood (<5 μl; Elite Autoanalyser, Bayer, Denmark) following the manufacturer's manual. The animals were kept fasted throughout the test. Immediately after the initial blood sample (fasting blood glucose level) test compound or vehicle was administered i.p. Fifteen minutes later an oral dose of glucose ((1 g/kg) Sigma, St. Louis, Mo., U.S.A.)), dissolved in phosphate buffer (pH=7.40) was given, and the animals were returned to their home cages (time=0). […] To analyse the effects of the test compounds on oral glucose tolerance the absolute difference in BG from baseline (fasting BG) was calculated for each time point. The area under the curve (AUC) (FIG. 1-8) for the whole experiment (AUC0-120 min) or (AUC0-240 min) was determined using the trapezoid method. Before starting the experimental series an OGTT was used to stratify animals into groups of 9-10 animals displaying similar glucose tolerances in all groups. Animals displaying excessive glucose excursion 30 min after glucose loading (BG>33 mmol/l) were excluded from the study.

[1] = Table 2, another set of experiments

Row | Substance | lowering of blood glucose levels (diabetic db/db mice) | ED50 (db/db mice; [1]) | ED50 (db/db mice; Table 1)
1 | Exendin-4 | 40% | – | –
2 | Compound 5: Stabilized derivative of Compound 1 (SEQ ID NO: 5), formed by incubation in NH4HCO3 pH 7.9 at 40° C. (HGEGTFTSDLSKQMEEEAVRLFIEWLKDGGPSSGAPPSKKKKKK) | – | 0.043 nmol/kg | –
3 | Compound 6: Stabilized derivative of Compound 1 (SEQ ID NO: 6), formed by incubation in NH4HCO3 pH 7.9 at 40° C. (HGEGTFTSDLSKQMEEEAVRLFIEWLKDGGPSSGAPPSKKKKKK) | – | – | 0.013 nmol/kg
4 | Compound 14: Stabilized derivative of Compound 1 (SEQ ID NO: 14), formed by incubation in NH4HCO3 pH 7.9 at 40° C. (HGEGTFTSDLSKQMEEEAVRLFIEWLKDGGPSSGAPPSKKKKKK) | – | – | 0.55 nmol/kg
5 | des Pro^36 Exendin-4 (1-39)-K6 [Compound 1] | – | 0.073 nmol/kg | 0.049 nmol/kg
6 | Compound 2: Stabilized derivative of Compound 1 (SEQ ID NO: 2), obtained by exposing Compound 1 to H2O2 (HGEGTFTSDLSKQMEEEAVRLFIEWLKDGGPSSGAPPSKKKKKK) | – | 0.011 nmol/kg | –
